Patent US10550102B2, “Indane and indoline derivatives and the use thereof as soluble guanylate cyclase activators” (NOVARTIS AG, priority 2014, dated 2020)

Target: soluble guanylate cyclase (human GUCYA3 and GUCYB3) overexpressed in CHO cells (Homo sapiens (Human), UniProt Q02108+Q02153)
Experiment: CHO cellular assay (cGMP production, Cisbio cGMP HTRF kit)
Assay type: cell-based
Details: CHO GUCY clone 8E10, cGMP production, assay buffer with 1 mM IBMX and 20 uM ODQ, 1 h room temperature; minimum quantification limit 0.5 nM (listed 0.5 nM means ≤0.5 nM); read-out: EC50
Source text: Chinese hamster ovary (CHO) cells overexpressing soluble guanylate cyclase were generated to test the effect of sGC activators in a cellular context. Human cDNAs for GUCYA3 (RefSeq: NM_000856.3) and GUCYB3 (RefSeq: NM_000857.1) were amplified by PCR from a HUVEC (Human Umbilical Vein Endothelial Cells) cDNA library and cloned into mammalian expression vectors. CHO K1 cells (ATCC CCL-61) were transfected using Lipofectamine 2000 following manufacturer's instructions and stably expressing clones were identified by antibiotic selection. CHO GUCY clone 8E10 was used for subsequent experiments. Cells were seeded at a density of 3000 cells/well in white 384-well proxyplates (Perkin Elmer) and incubated overnight, then the medium was removed and cells were washed with assay buffer (HBSS, 0.1% BSA. 1 mM IBMX, 20 uM ODQ). sGC activators were serially diluted in DMSO, then diluted in assay buffer prior to adding to cells (10 ul/well, final DMSO concentration 0.5%). Cells were incubated with compounds for 1 h room temperature, then assayed for cGMP production using Cisbio cGMP HTRF kit (62GM2PEC) according to manufacturer's instructions. The EC50s are calculated based on the amount of cGMP interpolated from the standard curve, using a 4-parameter sigmoidal dose-response.

soluble guanylate cyclase (human GUCYA3 and GUCYB3) overexpressed in CHO cells, sequence (Q02108 whole entry partner): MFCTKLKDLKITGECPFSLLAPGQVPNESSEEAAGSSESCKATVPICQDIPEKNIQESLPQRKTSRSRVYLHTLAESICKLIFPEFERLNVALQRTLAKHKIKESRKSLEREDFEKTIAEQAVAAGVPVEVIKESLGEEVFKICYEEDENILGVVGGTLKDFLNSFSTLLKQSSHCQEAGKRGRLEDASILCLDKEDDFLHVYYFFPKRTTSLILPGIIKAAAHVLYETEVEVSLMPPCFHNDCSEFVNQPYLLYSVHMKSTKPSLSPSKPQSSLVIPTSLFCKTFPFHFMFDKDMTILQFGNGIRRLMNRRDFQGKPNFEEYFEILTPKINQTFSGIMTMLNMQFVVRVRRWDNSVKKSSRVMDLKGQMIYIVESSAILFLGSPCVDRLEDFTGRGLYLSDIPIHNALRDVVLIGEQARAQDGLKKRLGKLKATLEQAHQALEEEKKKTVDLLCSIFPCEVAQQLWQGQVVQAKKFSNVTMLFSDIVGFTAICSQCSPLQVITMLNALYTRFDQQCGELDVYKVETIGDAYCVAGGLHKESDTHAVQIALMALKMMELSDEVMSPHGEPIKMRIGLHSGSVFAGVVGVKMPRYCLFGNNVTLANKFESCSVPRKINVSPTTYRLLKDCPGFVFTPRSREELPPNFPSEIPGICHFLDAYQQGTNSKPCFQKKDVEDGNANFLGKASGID
soluble guanylate cyclase (human GUCYA3 and GUCYB3) overexpressed in CHO cells, sequence (Q02153 whole entry): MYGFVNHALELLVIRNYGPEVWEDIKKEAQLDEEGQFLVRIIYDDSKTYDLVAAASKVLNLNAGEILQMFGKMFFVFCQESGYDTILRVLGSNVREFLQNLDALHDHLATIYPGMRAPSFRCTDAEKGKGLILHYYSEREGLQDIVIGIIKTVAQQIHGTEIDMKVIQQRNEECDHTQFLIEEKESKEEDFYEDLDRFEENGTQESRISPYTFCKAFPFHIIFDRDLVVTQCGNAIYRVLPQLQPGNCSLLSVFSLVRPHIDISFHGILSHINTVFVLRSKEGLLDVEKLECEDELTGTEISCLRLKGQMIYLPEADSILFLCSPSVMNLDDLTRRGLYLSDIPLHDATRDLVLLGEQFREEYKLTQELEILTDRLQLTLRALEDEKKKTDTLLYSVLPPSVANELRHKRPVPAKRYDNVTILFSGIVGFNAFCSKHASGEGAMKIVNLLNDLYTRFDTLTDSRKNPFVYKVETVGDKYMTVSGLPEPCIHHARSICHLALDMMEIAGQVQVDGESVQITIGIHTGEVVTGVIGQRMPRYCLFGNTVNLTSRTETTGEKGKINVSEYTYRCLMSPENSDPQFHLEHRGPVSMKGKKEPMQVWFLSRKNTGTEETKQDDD

EC50 [nM]	Compound
≤ 0.5	CCc1cc(CN2CC(C)c3cccc(-c4cccc(-n5ncc(C(=O)O)c5CC)n4)c32)ccc1C1CCN(C(=O)[C@H](C)O)CC1 (single isomer, unassigned) [Example 17a]
≤ 0.5	CCc1cc(O[C@H]2CCc3cccc(-c4cccc(-n5ncc(C(=O)O)c5CC)n4)c32)ccc1C1CCN(C(=O)C(C)CCO)CC1 (single isomer, unassigned) [Example 32a]
≤ 0.5	CCc1cc(CC2CCc3cccc(-c4cccc(-n5ncc(C(=O)O)c5CC)n4)c32)ccc1C1CCN(C(=O)C2CC2)CC1 (single isomer, unassigned; (+)) [38-1 (+), (+)-1-(6-(3-(4-(1-(cyclopropanecarbonyl)piperidin-4-yl)-3-ethylbenzyl)-2,3-dihydro-1H-inden-4-yl)pyridin-2-yl)-5-ethyl-1H-pyrazole-4-carboxylic acid]
≤ 0.5	CCc1c(C(=O)O)cnn1-c1cccc(-c2cccc3c2C(Cc2ccc(C4CCN(C(=O)C5CC5)CC4)cc2C)CC3)n1 (single isomer, unassigned; (+)) [38-3 (+), (+)-1-(6-(3-(4-(1-(cyclopropanecarbonyl)piperidin-4-yl)-2-methylbenzyl)-2,3-dihydro-1H-inden-4-yl)pyridin-2-yl)-5-ethyl-1H-pyrazole-4-carboxylic acid]
≤ 0.5	CCC[C@H](O)C(=O)N1CCC(c2ccc(CC3CCc4cccc(-c5cccc(-n6ncc(C(=O)O)c6CC)n5)c43)cc2CC)CC1 (single isomer, unassigned; (+)) [40-1 (+)]
≤ 0.5	CCc1c(C(=O)O)cnn1-c1cccc(-c2cccc3c2C(Cc2ccc(C4CCN(C(=O)[C@H](C)O)CC4)cc2C)CC3)n1 (single isomer, unassigned; (+)) [40-2 (+)]
≤ 0.5	CCC[C@H](O)C(=O)N1CCC(c2ccc(CC3CCc4cccc(-c5cccc(-n6ncc(C(=O)O)c6CC)n5)c43)c(C)c2)CC1 (single isomer, unassigned; (+)) [40-3 (+)]

Continued, molecule first:

Compound	EC50 [nM]
Cc1cc2c(c(-c3cccc(-n4ncc(C(=O)O)c4C(F)(F)F)n3)c1)C(Nc1ccc(C3CCN(C(=O)C4CC4)CC3)cc1C)CC2 (racemic) [Example 11-1, (±)-1-(6-(3-((4-(1-(cyclopropanecarbonyl)piperidin-4-yl)-2-methylphenyl)amino)-6-methyl-2,3-dihydro-1H-inden-4-yl)pyridin-2-yl)-5-(trifluoromethyl)-1H-pyrazole-4-carboxylic acid]	1
Cc1cc(C2CCN(C(=O)C3CC3)CC2)ccc1NC1CCc2cccc(-c3cccc(-n4ncc(C(=O)O)c4C)c3)c21 (racemic) [Example 11-4, (±)-1-(3-(3-((4-(1-(cyclopropanecarbonyl)piperidin-4-yl)-2-methylphenyl)amino)-2,3-dihydro-1H-inden-4-yl)phenyl)-5-methyl-1H-pyrazole-4-carboxylic acid]	≤ 0.5
Cc1cc(C2CCN(c3ccccn3)CC2)ccc1NC1CCc2cccc(-c3cccc(-n4ncc(C(=O)O)c4C)n3)c21 (racemic) [Example 59, (±)-Methyl-16-(3-((2-methyl-4-(1-(pyridin-2-yl)piperidin-4-yl)phenyl)amino)-2,3-dihydro-1H-inden-4-yl)pyridin-2-yl)-1H-pyrazole-4-carboxylic Acid]	1
Cc1cc(C2CCN(C3CC3)CC2)ccc1NC1CCc2cccc(-c3cccc(-n4ncc(C(=O)O)c4C)n3)c21 (racemic) [Example 60, (±)-1-(6-(3-(4-(1-Cyclopropylpiperidin-4-yl)-2-methylphenyl)amino)-2,3-dihydro-1H-inden-4-yl)pyridin-2-yl)-5-methyl-1H-pyrazole-4-carboxylic Acid]	5.3
Cc1cc(C2CCN(C(=O)C3CC3)CC2)cnc1NC1CCc2cccc(-c3cccc(-n4ncc(C(=O)O)c4C)n3)c21 (racemic) [Example 62, (±)-1-(6-(3-((5-(1-Cyclopropanecarbonyl)piperidin-4-yl)-3-methylpyridin-2-yl)amino)-2,3-dihydro-1H-inden-4-yl)pyridin-2-yl)-5-methyl-1H-pyrazole-4-carboxylic Acid]	6
CCC(=O)N1CCC(c2ccc(NC3CCc4cccc(-c5cccc(-n6ncc(C(=O)O)c6C)n5)c43)c(C)c2)CC1 (single isomer, unassigned) [(+)-46-2, (−)-5-Methyl-1-(6-(3-((2-methyl-4-(1-propionylpiperidin-4-yl)phenyl)amino)-2,3-dihydro-1H-inden-4-yl)pyridin-2-yl)-1H-pyrazole-4-carboxylic acid]	1
Cc1c(NC2CCc3cccc(-c4cccc(-n5ncc(C(=O)O)c5C)n4)c32)ccc(C2CCN(C(=O)CC3CC3)CC2)c1F (single isomer, unassigned) [Example (+) or (−)-46-4, 1-(6-(3-((4-(1-(2-cyclopropylacetyl)piperidin-4-yl)-3-fluoro-2-methylphenyl)amino)-2,3-dihydro-1H-inden-4-yl)pyridin-2-yl)-5-methyl-1H-pyrazole-4-carboxylic acid]	1.4
Cc1c(NC2CCc3cccc(-c4cccc(-n5ncc(C(=O)O)c5C)n4)c32)ccc(C2CCN(C(=O)CC3CC3)CC2)c1F (single isomer, unassigned) [Example (−) or (+)-46-4, 1-(6-(3-((4-(1-(2-cyclopropylacetyl)piperidin-4-yl)-3-fluoro-2-methylphenyl)amino)-2,3-dihydro-1H-inden-4-yl)pyridin-2-yl)-5-methyl-1H-pyrazole-4-carboxylic acid]	136
CCc1cc(CC2CCc3cccc(-c4cccc(-n5ncc(C(=O)O)c5C)n4)c32)ccc1C1CCN(C(=O)C2CC2)CC1 (single isomer, unassigned; (+)) [38-2 (+), (+)-1-(6-(3-(4-(1-(cyclopropanecarbonyl)piperidin-4-yl)-3-ethylbenzyl)-2,3-dihydro-1H-inden-4-yl)pyridin-2-yl)-5-methyl-1H-pyrazole-4-carboxylic acid]	≤ 0.5
Cc1cc2c(c(-c3cccc(-n4ncc(C(=O)O)c4C(F)(F)F)n3)c1)C(Nc1ccc(C3CCN(C(=O)C4CC4)CC3)cc1C)CC2 (single isomer, unassigned; (+)) [43 (+), (+)-1-(6-(3-((4-(1-(Cyclopropanecarbonyl)piperidin-4-yl)-2-methylphenyl)amino)-6-methyl-2,3-dihydro-1H-inden-4-yl)pyridin-2-yl)-5-(trifluoromethyl)-1H-pyrazole-4-carboxylic acid]	1
Cc1cc(C2CCN(C(=O)C3CC3)CC2)ccc1NC1CCc2cccc(-c3cccc(-n4ncc(C(=O)O)c4C)c3)c21 (single isomer, unassigned; (+)) [44 (+), (+)-1-(3-(3-((4-(1-(cyclopropanecarbonyl)piperidin-4-yl)-2-methylphenyl)amino)-2,3-dihydro-1H-inden-4-yl)phenyl)-5-methyl-1H-pyrazole-4-carboxylic acid]	≤ 0.5
Cc1cc(C2CCN(C(=O)C3CC3)CC2)ccc1CC1CCc2cccc(-c3cccc(-n4ncc(C(=O)O)c4C)c3)c21 (single isomer, unassigned; (+)) [54. b). (+), (+)-1-(3-(3-(4-(1-(cyclopropanecarbonyl)piperidin-4-yl)-2-methylbenzyl)-2,3-dihydro-1H-inden-4-yl)phenyl)-5-methyl-1H-pyrazole-4-carboxylic acid]	1
